Assay results reported in US20170020900A1, “METHODS FOR SCREENING ANTIMICROBIAL AND ANTIVIRAL COMPOUNDS AND USES THEREOF” (The General Hospital Corporation, priority 2006, published 2017).
≈ marks a conversion by molar mass, not a printed value. Residues, ends and D or L forms follow the SMILES beside them. *: point of attachment. CH2Cl = ClC*

Legend:
C. albicans strain MLR62 = assay: C. elegans-Candida killing assay, compound library screen in 96-well plates; type: in vivo, Candida albicans; conditions: for Killing: glp-4, sek-1 nematodes, day 6, compound 33.33 μg/ml, 13.33 μg/ml, or 6.67 mM depending on library
Experimental: For testing the efficacy of chemical compounds, C. albicans strain MLR62 was inoculated into 2 ml of YPD and grown at 30° C. for 24 hours; 10 μl of the culture was spread on 35-mm tissue-culture plates (Falcon) containing brain heart infusion (BHI) agar (Difco) with kanamycin (45 μg/ml), ampicillin (100 μg/ml), and streptomycin (100 μg/ml). The plates were incubated at 30° C. for 24 hours. C. elegans animals at the L4 developmental stage (grown as detailed above under C. elegans liquid medium killing assays) were transferred from a lawn of E. coli HB101 onto C. albicans lawns on BHI medium, incubated at 25° C. for 30 minutes, and then pipetted in 50 μl into 96-well plate wells that contained 100 μl liquid media (79% of M9 buffer, 20% BHI media, 2 μM cholesterol and 90 μg/ml kanamycin). C. elegans glp-4; sek-1 nematodes were pipetted into 96-well plates that contained compounds from chemical libraries. Library 1361 was assembled by Biomol and contains well-characterized compounds that affect many different aspects of cellular pathways. The NINDS custom collection (plates 501-503) was put together by MicroSource Discovery Systems for the National Institute of Neurological Disorders and Stroke (NINDS), the Huntington's Disease Society of America (HDSA), the Amyotrophic Lateral Sclerosis (ALS) Association, and the Hereditary Disease Foundation (HDF). It mostly contains FDA approved drugs. The Prestwick library (plate 1569) contains compounds that are known to be safe and bioactive in humans. The majority of the compounds are marketed drugs.
On day 6, nematodes were evaluated for survival, filament formation and optical density. The plates were incubated at 25° C. and examined on day 6 for survival with a Nikon SMZ645 dissecting microscope. In addition, images were obtained using a CellWorx High Content Cell Analysis System (Applied Precision) at 4× magnification. Dead worms were counted but not removed. […] Each compound was also scored by the number of dead worms in the well that developed hyphea. […] Compounds were categorized as having a minimal effect on filament formation if 25-75% of the dead worms developed hyphea.
Approximately 25 nematodes were used to analyze each chemical compound tested. Two controls were used in all plates. […] In this pilot screen, we considered a compound as a “hit” when survival in the compound well with was 50% and above of the median survival of the control wells. Depending on the compound library, the final concentration of the compounds was 33.33 μg/ml, 13.33 μg/ml, or […].

E. faecalis [1] = assay: Bacterial colonization of the nematode intestine (CFU per worm); type: in vivo, Enterococcus faecalis; conditions: 100% = 3.28 × 10^4 CFU/worm
Experimental: Infected worms were washed three times with M9 buffer containing 1 mM sodium azide. Approximately 10 worms were transferred to a 2 ml microcentrifuge tube and the volume was brought to 250 μl. Fifty μl of buffer was removed and plated to determine the number of external CFU.

[2] = system: E. faecalis strain MMH594; assay: MIC, 2-fold broth microdilution in BHI media (NCCLS); type: cell-based, Enterococcus faecalis; conditions: Enterococcus faecalis, E30 value is at its aqueous solubility limit, read-out: MIC
Experimental: Worm survival was scored manually after 6 days of incubation. […] MICs were determined against E. faecalis strain MMH594 using 2-fold dilution in BHI media according to the broth microdilution protocol of the NCCLS (CLSI) (National Committee for Clinical Laboratory Standards, Approved Standard M7-A5; Methods for Dilution Antimicrobial Susceptibility Tests for Bacteria that Grow Aerobically, Villanova, Pa.: NCCLS (2000)).

E. faecalis [3] = assay: Curing of a nematode E. faecalis infection on solid medium by antibiotic treatment; type: in vivo, Enterococcus faecalis; conditions: worms transferred to E. faecium lawns
Experimental: FIGS. 11A-11D show the curing of a nematode E. faecalis infection on solid medium by antibiotic treatment. FIG. 11A is a graph depicting the Kaplan-Meier survival curves of wild-type N2 C. elegans feeding continuously on lawns of E. faecalis (Efs) V583 (▴) or E. faecium (Efm) DO (▾). Nematodes feeding for 24 hours on E. faecalis and subsequently transferred to lawns of E. faecium (▪) die with an LT50 of 14.9 days. Error bars equal SEM. […] FIG. 11C is a graph showing the antibiotic concentrations required to promote rescue of E. faecalis infected N2 nematodes. […] Error bars are standard deviations. […] Error bars equal SEM.
N2 or glp-4(bn2ts); sek-1(km4) worms were synchronized by isolating eggs from gravid adults, hatching the eggs overnight in M9 buffer, and plating L1-stage worms onto lawns of E. coli on NGM agar media. Worms were grown to sterile, young adults by incubation at 25° C. for 48 to 52 hours, washed off the plates with M9 buffer, resuspended and washed in M9 buffer, deposited onto lawns of E. faecalis grown on BHI agar plates containing kanamycin at 80 μg/ml to inhibit E. coli growth, incubated for 8 to 12 hours at 25° C., and resuspended in M9 buffer. For assays using agar media, approximately 35 infected worms were washed and then deposited onto 35 mm plates containing the appropriate antibiotics. Plates were incubated at 25° C. and scored for worm survival at regular intervals. Worms were considered dead if they were unresponsive to touch with a platinum wire pick. For the initial assays using liquid media, approximately 80 infected worms were transferred to wells of a 6 well plate containing 2 ml media consisting of 10% BHI 80 μg/ml kanamycin, 90% M9 buffer, and the appropriate antibiotics. The plates were incubated without agitation at 25° C. and 80-85% relative humidity.

Compound | Killing (C. albicans strain MLR62) | further results
Eicosatrienoic acid (20:3 n-3) | 0.333 | –
CC/C=C\C/C=C\C/C=C\C/C=C\C/C=C\CCCC(=O)O [Eicosapentaenoic acid (20:5 n-3)] | 0.448 | –
N#CC(=Cc1ccc2[nH]ccc2c1)C(N)=C(C#N)C#N [AG-370] | 0.111 | –
CC(Oc1cccc(Cl)c1)C(=O)N/N=C/c1cc([N+](=O)[O-])ccc1O (stereo not shown) [Compound N1] | – | Amt. Colonization vs untreated (E. faecalis [1]): 5%; MIC [2]: 3.9 µg/mL (≈ 10.7 µM)
CC(=O)N[C@@H](CSC/C=C(\C)CC/C=C(\C)CCC=C(C)C)C(=O)O [Acetyl (N) s farnesyl 1 cys] | 0.4 | –
O=C(/C=C/c1ccc(O)c(O)c1)OCCc1ccccc1 [Caffeic acid phenethyl ester] | – | fluorescence within the nematode intestine (GFP-expressing C. albicans) (C. albicans strain MLR62; FIG. 18A): no fluorescence within the intestine
Docosatrienoic acid (22:3 n-3) | 0.439 | –
CCCCC/C=C\C/C=C\C/C=C\C=C\[C@H](CCCC(=O)O)OO [5 (S) HPETE] | 0.261 | –
C[C@H](N)C(=O)N[C@@H](C)C(=O)N[C@@H](Cc1ccccc1)C(=O)CCl [ALA-ALA-PHE-CMK] (H-Ala-Ala-Phe-CH2Cl) | 0.448 | –
COc1ccc(/C=C/C2=CCN(Cc3ccccc3)CC2)cc1 [Compound K1] | – | Amt. Colonization vs untreated (E. faecalis [1]): 61%; MIC [2]: > 125 µg/mL
CCCCC/C=C\C[C@@H](O)/C=C/C=C/C=C\[C@@H](O)CCCC(=O)O [Leukotriene B4] | 0.483 | –
CCCCCCCCCCCCCCC[C@H](O)[C@@H](N)CO (racemic) [DL-Dihydrosphingosine] | 0.485 | –
Hydroxytacrine maleate | 0.467 | –
CCCCC[C@H](O)/C=C/C=C\C=C\C=C\[C@@H](O)[C@@H](O)CCCC(=O)O [Lipoxin A4] | 0.273 | –
Ikarugamycin | 0.429 | –
CN(C)[C@@H]1C(O)=C(C(N)=O)C(=O)[C@@]2(O)C(O)=C3C(=O)c4c(O)cccc4[C@@](C)(O)[C@H]3C[C@@H]12 [Tetracycline] | – | survival of E. faecalis infected N2 C. elegans, p (Kaplan-Meier) (E. faecalis [3]; tetracycline 0.08 μg/ml): 0.56; survival of E. faecalis infected N2 C. elegans, p (Kaplan-Meier) (E. faecalis [3]; tetracycline 0.4 μg/ml): < 0.06; survival of E. faecalis infected N2 C. elegans, p (Kaplan-Meier) (E. faecalis [3]; tetracycline 2 μg/ml): < 0.0014; survival of E. faecalis infected N2 C. elegans, p (Kaplan-Meier) (E. faecalis [3]; tetracycline 10 μg/ml): < 0.0001
CC1(C)C(C=C(Cl)Cl)C1C(=O)NCCCOC(=O)Nc1ccc(Cl)cc1 (stereo not shown) [Compound M1] | – | Amt. Colonization vs untreated (E. faecalis [1]): 8%; MIC [2]: > 125 µg/mL
CCCCC(C)(O)C/C=C/[C@H]1[C@H](O)CC(=O)[C@@H]1CCCCCCC(=O)O (mixture of isomers) [Misoprostol, free acid] | 0.464 | –
COc1cc2ncnc(Nc3cccc(Cl)c3)c2cc1OC [AG-1478] | 0.3 | –

Compound | Killing (C. albicans strain MLR62) | further results
Hydrocortisone hemisuccinate | 0.300 | –
N#C/C(=C/c1ccc(O)c(O)c1)C(=O)NCc1ccccc1 [AG-490] | 0.462 | –
C=C1[C@@H](C)[C@H]2[C@H](Cc3ccccc3)NC(=O)[C@]23OC(=O)/C=C/[C@H](O)CCC[C@@H](C)C/C=C/[C@H]3[C@@H]1O [Cytochalasin B] | 0.438 | –
O=c1[nH]c2ccc(/N=C/c3cc(I)cc(I)c3O)cc2[nH]1 [Compound H1] | – | Amt. Colonization vs untreated (E. faecalis [1]): 1%; MIC [2]: 15.6 µg/mL (≈ 30.9 µM)
c1ccc(-c2ccc(CN3CCN(c4ccccn4)CC3)cc2)cc1 [Compound L1] | – | Amt. Colonization vs untreated (E. faecalis [1]): 101%; MIC [2]: > 125 µg/mL
CCCCCCCCCCC/C=C\C(C)(C)/C=C\CCCC(=O)O [7,7-Dimethyleicosadienoic acid] | 0.304 | –
CO/C1=C\C(C)=C\[C@@H](C)[C@@H](O)[C@@H](C)C/C(C)=C/C=C/[C@H](OC)[C@@H]([C@@H](C)[C@@H](O)[C@H](C)[C@@]2(O)C[C@@H](O)[C@H](C)[C@@H](C(C)C)O2)OC1=O [Bafilomycin A1] | 0.333 | –
C[N+]1(CCCCC[N+]2(C)CCCC2)CCCC1.O=C([O-])C(O)C(O)C(=O)O.O=C([O-])C(O)C(O)C(=O)O [Pentolinium bitartrate] | 0.227 | –
COC(=O)c1c(C)[nH]c(C)c1C(=O)c1ccccc1Cc1ccccc1 [FPL-64176] | 0.429 | –
O=C(CCN1C(=O)/C(=C2/SC(=S)N(CCC(=O)Nc3ccccc3C(=O)O)C2=O)SC1=S)Nc1ccccc1C(=O)O [Compound F1] | – | Amt. Colonization vs untreated (E. faecalis [1]): 3%; MIC [2]: > 125 µg/mL
O=C1c2ccccc2-c2ncnc3ccc(NC4CCCCC4)c1c23 [Compound J1] | – | Amt. Colonization vs untreated (E. faecalis [1]): 11%; MIC [2]: 2 µg/mL (≈ 6.07 µM)
O=C(NC(NC(=S)Nc1ccc([N+](=O)[O-])cc1)C(Cl)(Cl)Cl)c1cccc([N+](=O)[O-])c1 (stereo not shown) [Compound E1] | – | Amt. Colonization vs untreated (E. faecalis [1]): 1%; MIC [2]: 31.3 µg/mL (≈ 63.5 µM)
Clc1ccc2ncnc(NCc3ccc4c(c3)OCO4)c2c1 [MBCQ] | 0.32 | –
N#Cc1cc2c(OCC(O)CN3CCN(C(c4ccccc4)c4ccccc4)CC3)cccc2[nH]1 (stereo not shown) [SDZ-201106] | 0.432 | –
O=[N+]([O-])c1cc(O)ccc1/C=N/Nc1nc(NCc2ccccc2)nc(N2CCOCC2)n1 [Compound O1] | – | Amt. Colonization vs untreated (E. faecalis [1]): 8%; MIC [2]: 15.6 µg/mL (≈ 34.6 µM)
Cc1n[nH]c(=O)[nH]c1=O [Azathymine, 6] | 0.480 | –
CC(=O)[C@H]1CC[C@H]2[C@@H]3CC=C4C[C@@H](OS(=O)(=O)[O-])CC[C@]4(C)[C@H]3CC[C@]12C.[Na+] [Pregnenolone sulfate, sodium salt] | 0.438 | –
CCCCC[C@@H](/C=C/C=C\C/C=C\C/C=C\CCCC(=O)O)OO [15 (S) HPETE] | 0.412 | –
